Experimental data published in patent publication US20170240593A1, “AROMATIC-CATIONIC PEPTIDES AND USES OF SAME” (Cornell University, priority 2011, published 2017).
Entries after “also recorded” stand apart in the source; their conditions may differ. Non-standard residues stand in square brackets, D forms with d. No end group written: not given here.

Assays:
[1] = tested on: H2O2, hydroxyl radical, and peroxynitrite; experiment: Neutralization of reactive species and lipid peroxidation; format: biochemical
[2] = tested on: animal models of ischemia-reperfusion injury, neurodegenerative diseases, and metabolic syndrome; experiment: Animal models of ischemia-reperfusion injury, neurodegenerative diseases, and metabolic syndrome; format: in vivo
[3] = tested on: mitochondrial ROS; experiment: Cellular and animal studies of mitochondrial ROS and function
[4] = biological target: T1, cytochrome c (Homo sapiens, UniProt P99999); experiment: Cytochrome c reduction by absorption spectroscopy (absorbance at 550 nm); format: biochemical; details: for rate of cytochrome c reduction: glutathione (GSH) as reducing agent, absorbance at 550 nm, FIG. 1B, FIG. 13
T1 sequence (P99999 whole entry, species assumed): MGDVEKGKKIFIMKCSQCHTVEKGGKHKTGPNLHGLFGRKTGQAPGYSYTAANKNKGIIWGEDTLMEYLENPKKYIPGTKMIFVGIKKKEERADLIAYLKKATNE
Method: Cytochrome c reduction: increasing amounts of aromatic-cationic peptides were added to a solution of oxidized cytochrome c. The formation of reduced cytochrome c was monitored by absorbance at […]. The rate of cytochrome c reduction was determined by non-linear analysis (Prizm software).
Time-resolved UV-Visible absorption spectroscopy was used to study the electron transport process of cytochrome c in the presence of peptides. Reduced cytochrome c was monitored by absorbance at a broad-band spectral range (200-1100 nm). The absorption changes were recorded with a UV/Visible spectrophotometer (Ultrospec 3300 pro, GE) in quartz cells with path lengths of 1 or 2 mm. N-acetylcysteine (NAC) and glutathione were used as electron donors to reduce oxidized cytochrome c. The rate constant of cytochrome c reduction was estimated by adding various concentrations of peptides. The dose dependence of the peptides was correlated to the cytochrome c reduction kinetics.
Absorption spectroscopy (UltroSpec 3300 Pro; 220-1100 nm) was used to determine if SS-31 modulates cytochrome c reduction (FIG. 1). Reduction of cytochrome c with glutathione is associated with multiple shifts in the Q band (450-650 nm), with a prominent shift at 550 nm.
SS-31 and SS-20 can accelerate the kinetics of cytochrome c reduction induced by glutathione (GSH) as a reducing agent (FIG. 13). Reduction of cytochrome c was monitored by increase in absorbance at 550 nm. […] Similar results were obtained using N-acetylcysteine (NAC) as a reducing agent (not shown).

[5] = biological target: T1, cytochrome c; experiment: Cyclic voltammetry of cytochrome c; format: biochemical
[6] = biological target: T1, cytochrome c; experiment: Photoluminescence of cytochrome c (532.8 nm excitation, 650 nm emission); format: biochemical; details: Nd:YDO4 laser 532.8 nm
From the text: A light source 140, such as a laser or light-emitting diode (LED), illuminates the peptide-doped cytochrome c layer 110 at an excitation wavelength, such as 532.8 nm. […] (As understood by those skilled in the art, the gap between the valence band and the excited state is […] to the excitation wavelength.) After a short relaxation time, the electron decays from the excited state to a conduction band. When the electron relaxes to valence band from the conduction band, the peptide-doped cytochrome c layer 110 emits a photon at a luminescence wavelength, such as 650 nm, fixed by the gap between the valence and conduction bands.
Thus, as the aromatic-cationic peptide concentration in the peptide-doped cytochrome c layer 110 varies due to changes in the pH and/or temperature of the test substrate 130, the intensity at the luminescence wavelength varies as well. Detecting this change in intensity with a photodetector 150 yields an indication of the pH and/or temperature of the test substrate 130.
Photoluminescence (PL) was carried out to examine the effects of SS-31 on the electronic structure of conduction band of the […] of cytochrome c, an energy state responsible for electronic transport (FIG. 3). A […] laser (532.8 nm) was used to excite electrons in cytochrome c (FIG. 2A). Strong PL emission in cytochrome c state can be clearly identified at 650 nm (FIG. 2B).

[7] = biological target: T1, cytochrome c; experiment: Circular dichroism of Soret band of cytochrome c; format: biochemical; details: FIG. 4
Method: Circular dichroism (Olis spectropolarimeter, DSM20) was carried out to monitor Soret band (negative peak at 415 nm), as a probe for the π-π* heme environment in cytochrome c (FIG. 4). […] The increase in π-π* interaction around the heme would enhance electron tunneling which would be favorable for electron diffusion.

[8] = tested on: isolated rat kidney mitochondria; experiment: O2 consumption of isolated rat kidney mitochondria (Oxygraph); format: biochemical; details: for electron flux, as measured by O2 consumption: 100 μM peptide, 0.5 mM succinate (complex II substrate) and 400 μM ADP, FIG. 14
Method: (§1) Mitochondrial O2 consumption and ATP production: Fresh mitochondria were isolated from rat kidney as described previously. Electron flux was measured by O2 consumption (Oxygraph Clark electrode) as previously described using different substrates for C1 (glutamate/malate), C2 (succinate), and C3 (TMPD/ascorbate). Assays were carried out under low substrate conditions in order to avoid saturating the enzyme reactions. ATP production in isolated mitochondria was determined kinetically using the luciferase method (Biotherma) in a 96-well luminescence plate reader (Molecular Devices). The initial maximal rate for ATP synthesis was determined over the first minute.
Oxygen consumption of isolated rat kidney mitochondria was determined using the Oxygraph (FIG. 5). Rates of respiration were measured in the presence of different concentrations of SS-31 in state 2 (400 μM ADP only), state 3 (400 μM ADP and 500 μM substrates) and state 4 (substrates only). All experiments were done in triplicate with n=4-7.
(§2) SS-20 or SS-31 was added at 100 μM concentrations to isolated mitochondria in respiration buffer containing 0.5 mM succinate (complex II substrate) and 400 μM ADP.

[9] = tested on: isolated mitochondria; experiment: ATP synthesis in isolated mitochondria; format: biochemical, rat; details: for rate of ATP production: isolated mitochondria energized with low concentrations of succinate, FIG. 15
Method: as §1
The rate of mitochondrial ATP synthesis was determined by measuring ATP in respiration buffer collected from isolated mitochondria 1 min after addition of […] (FIG. 6). ATP was assayed by HPLC. All experiments were carried out in triplicate, with n=3.
as §2

[10] = tested on: cytochrome c-depleted mitoplasts made from once-frozen rat kidney mitochondria; experiment: O2 consumption in cytochrome c-depleted mitoplasts; format: biochemical; details: 500 μM Succinate, 100 μM SS-31; FIG. 7
Method: Rates of respiration were measured in the presence of 500 μM Succinate with or without 100 μM SS-31. The experiment was carried out in triplicate, with n=3.

Substance	lipid peroxidation [1]	neutralization of H2O2, hydroxyl radical, and peroxynitrite [1]	efficacy in animal models [2]	mitochondrial ROS and mitochondrial function [3]	rate of NAC-induced cytochrome c reduction ([4]; N-acetylcysteine (NAC) as reducing agent)	rate of cytochrome c reduction [4]	reduction of cytochrome c by peptide alone ([4]; peptide alone at 100 μM, no reducing agent)	spectral weight shift at 550 nm of cytochrome c ([4]; reduction of cytochrome c with glutathione, FIG. 1A)	current for reduction and oxidation processes of cytochrome c ([5]; Au working electrode, Ag/AgCl reference, FIG. 2 upper panel)	reduction/oxidation potentials of cytochrome c ([5]; FIG. 2 upper panel)	increase of current (electron diffusion rate) ([5]; cytochrome c:SS-31=1:2, TBE buffer, FIG. 2 lower panel) [%]	PL intensity of cytochrome c at 650 nm [6]	denaturing of cytochrome c [7]	Soret band peak position after red shift ([7]; negative peak at 415 nm without peptide) [nm]	electron flux, as measured by O2 consumption [8]	rates of respiration (O2 consumption) ([8]; different concentrations of SS-31, state 2, state 3 and state 4, FIG. 5)	rate of ATP synthesis ([9]; ATP by HPLC 1 min after addition of 400 mM ADP, FIG. 6)	rate of ATP production [9]	mitochondrial O2 consumption (rates of respiration) in cytochrome c-depleted mitoplasts [10]
D-Arg-2′6′-Dmt-Tyr-Lys-Phe-NH2	inhibit lipid peroxidation	can neutralize H2O2, hydroxyl radical, and peroxynitrite	remarkable efficacy	reduces mitochondrial ROS and protect mitochondrial function															
D-Arg-2′,6′-Dmt-Lys-Phe-NH2 [SS-31]					dose-dependently increased	increased; also recorded: accelerate	did not reduce cytochrome c	significant spectral weight shift	increased current	does not alter	~200	increased dose-dependently	without denaturing	440	promote electron flux	promoted electron transfer to oxygen without uncoupling mitochondria	dose-dependently increased	significant increase	Enhances Respiration
F[dR]FK-NH2 [SS-20]						accelerate									promote electron flux			significant increase	
